Patent US20090221554A1, “METHOD OF TREATING COGNITIVE IMPAIRMENT” (priority 2008, published 2009)

How the values were obtained:
[1] = test system: extracellular level of ACh in the hippocampus; experiment: Extracellular level of acetylcholine (ACh) in the rat hippocampus (microdialysis, HPLC-ECD); assay type: in vivo, rats; conditions: vs 1% CMC
Protocol: Food and water were available ad libitum. All animal care and treatments were conducted in accordance with the Guidelines for the Care and Use of Laboratory Animals established at the Central Research Laboratory, Zenyaku Kogyo Co., Ltd.

[2] = test system: cognitive impairment induced by scopolamine; experiment: Passive avoidance task, scopolamine-induced cognitive impairment in mice; assay type: in vivo
Protocol: Male mice of the ICR strain (Charles River Laboratories Japan, Inc.) at the ages of 8 to 9 weeks were used in the experiment. They were housed in a cage in group of 3 or 4 mice, in a room maintained at around 22° C. with a 12-h light/dark cycle. Food and water were available ad libitum. All animal care and treatments were conducted in accordance with the Guidelines for the Care and Use of Laboratory Animals established at the Central Research Laboratory, Zenyaku Kogyo Co., Ltd.
Compound 1 and donepezil were suspended in 1% carboxymethyl cellulose (CMC). […] For the coadministration studies of Compound 1 and donepezil, both drug suspensions were mixed together and this mixed suspension was injected. All drugs were prepared immediately before use and orally administered in a volume of 10 ml/kg.
The passive avoidance apparatus (Neuroscience Inc.) consisted of an illuminated chamber and a larger dark chamber. Two chambers were separated by a guillotine door. Oral administration of compound 1 at doses of 0.0001 mg/kg or 0.001 mg/kg and/or donepezil at doses of 0.01 and 0.1 mg/kg was given 60 min before the acquisition trial. […] Matched control group received vehicle only. In the acquisition trial, each mouse was placed in the illuminated chamber. Immediately after the entry into the dark chamber, the door was closed and inescapable scrambled electric shock (100 V, 0.4 mA, 1.5 sec) was delivered through the floor grid. Twenty-four h later, each mouse was placed in the illuminated chamber for retention trial. The interval between the placement in the illuminated chamber and the entry into the dark chamber was measured as step through latency (maximum 300 sec).
P level of <0.05 was considered indicative of statistical significance for the tests.

O=C1N=C2C=CC=CN2C12Cc1ccccc1C2 [compound 1, spiro[imidazo[1,2-a]pyridin-2(3H)-one-3,2′-indan]]
extracellular level of ACh in the hippocampus ([1]; compound 1 0.001 mg/kg p.o.): did not significantly increase | step-through latency ([2]; compound 1 0.0001 mg/kg p.o. 60 min before acquisition, scopolamine 1 mg/kg i.p., retention trial 24 h, vs 1% CMC + scopolamine): did not significantly prolong | step-through latency ([2]; compound 1 0.001 mg/kg p.o., scopolamine 1 mg/kg i.p., vs 1% CMC + scopolamine, P<0.05): prolonged

COc1cc2c(cc1OC)C(=O)C(CC1CCN(Cc3ccccc3)CC1)C2 (stereo not shown) [donepezil]
extracellular level of ACh in the hippocampus ([1]; donepezil 1 mg/kg p.o.): did not significantly increase | step-through latency ([2]; donepezil 0.01 mg/kg p.o., scopolamine 1 mg/kg i.p., vs 1% CMC + scopolamine): did not significantly prolong | step-through latency ([2]; donepezil 0.1 mg/kg p.o., scopolamine 1 mg/kg i.p., vs 1% CMC + scopolamine, P<0.05): prolonged

CN1[C@@H]2C[C@@H](OC(=O)[C@H](CO)c3ccccc3)C[C@H]1[C@@H]1O[C@@H]12 [scopolamine]
step-through latency ([2]; 1% CMC + scopolamine 1 mg/kg i.p. vs 1% CMC + saline control, P<0.01): markedly shorter
